Measurements published in publication PMC4900628, “Critical Evaluation of P2X7 Receptor Antagonists in Selected Seizure Models” (PLoS ONE, 2016).

How the values were obtained:
[1] = Plasma and brain concentration in mice (co-administration with AEDs); assay type: in vivo; details: PTZ-T
Protocol: Blood was collected intracardially by heart […] pipettes supplemented with heparin-Na (ratiopharm, Ulm, Germany; 10μl of 5.000 I.U./ml) and separated by centrifuging (1500xg for 10 min) at 6-8°C. The plasma was stored at -20°C in plastic tubes. After blood sample collection, rats were decapitated and brains were quickly dissected. After removing the adherent blood by tissue paper and cutting off the cerebellum, the samples were fresh frozen using liquid nitrogen. Brain tissue was stored at -80°C and delivered to the different laboratories on dry ice. For mice (groups with n = 6), a similar procedure was used for the preparation of plasma and brain samples. In experiments in which AFC was co-administered with carbamazepine or ethosuximide, drug concentrations in plasma and brain were estimated to detect potential pharmacokinetic interactions. Samples from experiments with AFC were analysed at the Lead Discovery Center (Dortmund, Germany). Briefly, AFC, carbamazepine and ethosuximide were extracted from plasma and homogenized brain by protein precipitation using acetonitrile. Resulting filtrates were analysed by liquid chromatography tandem-mass spectrometry (LC-MS/MS) using a Prominence UFLC system (Shimadzu, Duisburg, Germany) coupled to a QTrap 5500 instrument (ABSciex, Darmstadt, Germany). The compounds were separated on a Zorbax Eclipse Plus C18 column (Agilent Technologies, Santa Clara, CA, USA) with an acetonitrile/water gradient containing 0.1% formic acid as solvent. Chromatographic conditions and mass spectrometer parameters were optimized for each analyte. Plasma and brain concentrations of the compounds were calculated by means of a standard curve. Data were analysed using SigmaPlot (vers. 12.0, Systat Software, Erkrath, Germany) and SPSS (IBM SPSS Statistics 20, […], Germany), respectively. Results are expressed as mean ± SEM. […] In the MES-T, the current intensity inducing tonic hindlimb extensions in 50% of the mice (CC50 values with confidence limits for 95% probability) and the statistical significance was calculated using Probit analysis (SPSS). […] In the PTZ-T, the number of animals in the group with clonic seizures and the latency time were analysed using Fisher's exact probability test and the Mann-Whitney rank sum test, respectively. For multiple comparisons of the latency time a one-way ANOVA with the Holm-Sidak post hoc test was used. The influence of AFC on the plasma and brain concentrations of the antiepileptic drugs was statistical compared using the same procedure. In the PTZ-kindling model, the mean seizure stage within a group was calculated in relation to the number of PTZ-injections. Statistical comparison between vehicle- and compound-treated groups in this model was performed with two-way repeated measures ANOVA, followed by the Holm-Sidak post hoc test. The mean number of PTZ-injections needed to produce the first generalized seizure (≥ stage 3 convulsions) in the vehicle- versus compound-treated groups was statistically compared using a Mann-Whitney rank sum test. In fully kindled rats, the calculated mean seizure stage within a group after vehicle- and compound-treatment were compared using a paired t-test. P < 0.05 was the accepted minimum level of significance.

P2X7R = molecular target: T1, P2X7R (Rattus norvegicus, UniProt Q64663); experiment: P2X7R brain occupancy, ex vivo receptor binding autoradiography; assay type: in vivo; details: sc, rats, 15 mg/kg s.c., hippocampal slices, [3H] JNJ-54232334 autoradiography
T1 construct: from tissue; host or cells: rat (Wistar) brain, hippocampal slices
T1 sequence (Q64663 1-595): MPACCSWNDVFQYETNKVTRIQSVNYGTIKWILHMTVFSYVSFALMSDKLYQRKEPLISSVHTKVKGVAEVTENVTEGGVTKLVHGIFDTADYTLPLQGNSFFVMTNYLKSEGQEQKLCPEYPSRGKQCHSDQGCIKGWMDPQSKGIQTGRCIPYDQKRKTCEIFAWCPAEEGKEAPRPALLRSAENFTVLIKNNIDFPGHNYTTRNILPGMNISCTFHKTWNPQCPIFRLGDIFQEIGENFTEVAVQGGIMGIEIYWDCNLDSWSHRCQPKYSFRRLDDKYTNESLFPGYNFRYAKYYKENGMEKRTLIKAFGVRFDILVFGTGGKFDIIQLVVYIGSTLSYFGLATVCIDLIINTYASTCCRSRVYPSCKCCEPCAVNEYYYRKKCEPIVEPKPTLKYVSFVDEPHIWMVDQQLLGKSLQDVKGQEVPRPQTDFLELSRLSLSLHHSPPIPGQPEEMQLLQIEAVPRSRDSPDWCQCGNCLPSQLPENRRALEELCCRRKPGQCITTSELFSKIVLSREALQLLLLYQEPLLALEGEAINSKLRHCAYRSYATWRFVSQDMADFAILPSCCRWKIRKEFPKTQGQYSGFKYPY
Protocol: Plasma and brain samples from experiments with JNJ-47965567 were quantified at the Neuroscience Therapeutic Area, Janssen Research & Development (San Diego, CA, USA) using an API 4000 MS/MS system (Applied Biosystems, Concord, ON, Canada) interfaced with an Agilent 1100 Series HPLC (Agilent Technologies). To measure the percentage of P2X7R brain occupancy of JNJ-47965567, ex vivo receptor binding autography was performed as recently described. Briefly, 20 μm-thick hippocampal slices were prepared and P2X7R radioligand binding was determined at room temperature with 10 nM [^3H] JNJ-54232334 (Janssen) in 50 mM Tris-HCl incubation buffer containing 0.1% bovine serum albumin. The non-specific binding was measured using adjacent sections incubated in the additional presence of 100 μM A-740003 (Tocris Bioscience, Bristol UK). Sections were incubated for 1 min, washed in ice-cold incubation buffer (4 times, 5 min each), followed by two dips in deionized water and rapidly dry under a stream of cold air before acquisition. Quantitative analysis was performed using the Tracer ß-Imager with M3 Vision software (Biospace Lab, Paris, France). Ex vivo receptor labelling was expressed as the percentage of receptor labelling in corresponding brain areas of vehicle-treated control animals.

CCC1(C)CC(=O)NC1=O (stereo not shown) [Ethosuximide, ethosuximide]
blood concentrations of ethosuximide on co-application of AFC [1]: did not significantly modulate | brain concentration of ethosuximide alone ([1]; ethosuximide 100 mg/kg i.p., n = 6): 377.3 ± 14.3 µM | brain concentration of ethosuximide with AFC 50 mg/kg i.p. ([1]; ethosuximide 100 mg/kg i.p., n = 6, significantly increased): 453.9 ± 18.7 µM

O=C(NCC1(N2CCN(c3ccccc3)CC2)CCOCC1)c1cccnc1Sc1ccccc1 [JNJ-47965567, N-[[4-(4-phenyl-piperazin-1-yl)tetrahydro-2H-pyran-4-yl]-methyl]-2-(phenyl-thio) nicotinamide]
receptor occupancy at 15 mg/kg (P2X7R): 98 ± 2%
